Data published in patent publication US20020155503A1 (priority 1997, published 2002).

Biological target: protein tyrosine kinase v-Abl (Abelson murine leukemia virus, UniProt P00521)
Conditions: Library Sub-Set 4 (X-Tyr-X-X-X)
Description: In the fourth application of this invention, a recombinant form of the Abelson murine leukaemia virus protein tyrosine kinase v-Abl was used in an in vitro phosphorylation reaction to phosphorylate the library sub-set 4 which scans the sequence −1 to +3 around a zero position tyrosine residue, as previously performed for the ZAP-70 library. Detection of phosphoryrosine was achieved using anti-phosphotyrosine antibody detection in an ELISA assay using tetramethylbenzidine substrate and recording absorbance at 450 nm. […] Deconvolution of the hit peptides was performed as described in WO 97/42216.
Library peptides were phosphorylated in pools of 20 peptides at a final concentration of 1 μM total peptide in 50 mM HEPES, pH 7.5, 0.1% Triton X-100, 100 μM ATP, 10 mM MnCl2, 1 mM DTT and 0.2 mM sodium orthovanadate for 30 minutes at 30° C. These reaction mixtures were then stopped using 100 mM EDTA, 6 mM adenosine, transferred to strepavidin-coated microtiter plates and allowed to bind for 30 minutes at 20° C. Unincorporated reaction products were washed from the plate using PBS/0.1% Tween 20 then plate incubation performed with anti-phosphotyrosine antibody (Sigma mouse monoclonal clone PT66) in 2% BSA/PBS/Tween for 1 hour at 20° C. […] HRP detection was then performed with tetramethylbenzidine (TMB) substrate and measuring absorbance at 450 nm using a spectrophotometer (Dynex MRX). […]

Chain of protein tyrosine kinase v-Abl (P00521 whole entry): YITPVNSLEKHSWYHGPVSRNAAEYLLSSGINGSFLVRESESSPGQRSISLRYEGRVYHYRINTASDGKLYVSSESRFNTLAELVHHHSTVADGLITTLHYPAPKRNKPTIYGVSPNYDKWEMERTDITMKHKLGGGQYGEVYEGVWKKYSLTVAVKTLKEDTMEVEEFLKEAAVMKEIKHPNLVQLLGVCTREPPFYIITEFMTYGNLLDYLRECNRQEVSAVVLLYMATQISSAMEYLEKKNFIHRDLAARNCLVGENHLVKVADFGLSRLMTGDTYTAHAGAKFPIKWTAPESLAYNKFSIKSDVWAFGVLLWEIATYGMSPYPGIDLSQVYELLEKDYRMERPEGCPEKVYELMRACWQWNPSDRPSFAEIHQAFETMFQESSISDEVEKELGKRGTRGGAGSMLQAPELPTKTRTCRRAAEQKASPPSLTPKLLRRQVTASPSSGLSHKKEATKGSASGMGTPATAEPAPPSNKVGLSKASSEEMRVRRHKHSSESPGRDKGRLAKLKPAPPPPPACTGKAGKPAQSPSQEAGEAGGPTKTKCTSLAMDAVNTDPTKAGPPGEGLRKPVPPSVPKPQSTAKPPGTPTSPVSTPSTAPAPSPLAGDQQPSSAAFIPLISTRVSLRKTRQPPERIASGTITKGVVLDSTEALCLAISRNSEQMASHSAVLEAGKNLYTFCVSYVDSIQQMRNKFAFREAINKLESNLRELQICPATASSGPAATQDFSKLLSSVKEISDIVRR

Serine-tyrosine-phenylalanine-histamine-glutamine
substrate deconvoluted from library sub-set: active site substrate recognition substrate
